Laboratory results from patent US10633407B2, “14-membered ketolides and methods of their preparation and use” (President and Fellows of Harvard College, priority 2014, dated 2020).
≈ marks a conversion by molar mass, not a printed value.

What was measured:
Assay in all cases: CLSI broth dilution MIC determination
Assay type in all cases: cell-based
E. coli ATCC 25922 = settings: Escherichia coli, ATCC25922, E. coli ATCC 25922 (MP-4); read-out: MIC
Excerpt: (§1) MIC data was collected for the novel macrolides that this platform has produced against over 21 unique strains of B. subtilis, E. coli, S. aureus, S. pneumoniae, and H. influenzae, including several multidrug-resistant strains, with a special focus on macrolide resistant mechanisms (vide supra). Azithromycin (Azithro) and Solithromycin (Solithro) were included as a control macrolides in many cases. CLSI standard procedures for broth dilution MIC determination were used. […] These genotypes can be constitutive or inducible.

[1] = tested on: E. coli MP-532 clinical-cErmB; settings: Escherichia coli
Excerpt: as §1

E. coli MP-541 clinical = settings: Escherichia coli, MP541CLINICAL, read-out: MIC
Excerpt: as §1

[2] = tested on: E. coli MP-9 ATCC25922:tolC; settings: Escherichia coli, ATCC25922
Excerpt: as §1

[3] = tested on: S. aureus (MRSA) MP-513 ST-228 cErm (Clinical-cErm); settings: Staphylococcus aureus, read-out: MIC
Excerpt: as §1

S. aureus ATCC 29213 = settings: Staphylococcus aureus, ATCC29213; S. aureus ATCC 29213 (MP-12); read-out: MIC
Excerpt: as §1

[4] = tested on: S. aureus MP-17 ATCCBAA-977 (BAA 977 iErm); settings: Staphylococcus aureus; S. aureus MP-17, ATCCBAA-977, iErm; read-out: MIC
Excerpt: as §1

S. aureus MRSA: USA300 = settings: Staphylococcus aureus; S. aureus MRSA: USA300 (MP-549, msr(a)); read-out: MIC
Excerpt: as §1

A. baumannii ATCC 19606 = settings: Acinetobacter baumannii, ATCC19606; A. baumannii ATCC 19606 (MP-15); read-out: MIC
K. pneumoniae ATCC 10031 = settings: Klebsiella pneumoniae, ATCC10031, K. pneumoniae ATCC 10031 (MP-14); read-out: MIC
P. aeruginosa ATCC 27853 = settings: Pseudomonas aeruginosa, ATCC27853; P. aeruginosa ATCC 27853 (MP-3); read-out: MIC
P. aeruginosa MP-7 PAO1 = settings: Pseudomonas aeruginosa, read-out: MIC
[5] = tested on: P. aeruginosa MP-8 PAO1:mex (mex-oprM-deletion); settings: Pseudomonas aeruginosa, PAO1
[6] = tested on: K. pneumoniae MP-548 clinical; settings: Klebsiella pneumoniae, MP548CLINICAL, read-out: MIC
[7] = tested on: K. pneumoniae MP-546 Clinical-MDR; settings: Klebsiella pneumoniae, read-out: MIC
[8] = tested on: A. baumannii MP-577 Clinical-AZT low; settings: Acinetobacter baumannii, read-out: MIC
[9] = tested on: A. baumannii MP-576 Clinical-MDR; settings: Acinetobacter baumannii, read-out: MIC

Compound | MIC (E. coli ATCC 25922) | MIC [1] | MIC (E. coli MP-541 clinical) | MIC [2] | MIC [3] | MIC (S. aureus ATCC 29213) | MIC [4] | MIC (S. aureus MRSA: USA300) | MIC (A. baumannii ATCC 19606) | MIC (K. pneumoniae ATCC 10031) | MIC (P. aeruginosa ATCC 27853) | MIC (P. aeruginosa MP-7 PAO1) | MIC [5] | MIC [6] | MIC [7] | MIC [8] | MIC [9]
CC[C@H]1OC(=O)[C@@](C)(F)C(=O)[C@H](C)[C@@H](O[C@@H]2OC(C)CC(N(C)C)C2O)[C@](C)(OC)C[C@@H](C)C(=O)[C@H](C)[C@H]2N(CC#CCn3cc(-c4ccnc(N)n4)nn3)C(=O)O[C@]12C (stereo partly drawn) [FSM-22748] | 16 µg/mL (≈ 19 µM) | > 64 µg/mL | 16 µg/mL (≈ 19 µM) | 4 µg/mL (≈ 4.75 µM) | > 64 µg/mL | 0.25 µg/mL (≈ 0.297 µM) | 0.25 µg/mL (≈ 0.297 µM) | 0.25 µg/mL (≈ 0.297 µM) | 16 µg/mL (≈ 19 µM) | 8 µg/mL (≈ 9.49 µM) | 64 µg/mL (≈ 75.9 µM) | 64 µg/mL (≈ 75.9 µM) | 16 µg/mL (≈ 19 µM) | 64 µg/mL (≈ 75.9 µM) | > 64 µg/mL | 32 µg/mL (≈ 38 µM) | > 64 µg/mL
CC[C@H]1OC(=O)[C@@](C)(F)C(=O)[C@H](C)[C@@H](O[C@@H]2OC(C)CC(N(C)C)C2O)[C@](C)(OC)C[C@@H](C)C(=O)[C@H](C)[C@H]2N(CC#CCn3cc(-c4nccc(N)n4)nn3)C(=O)O[C@]12C (stereo partly drawn) [FSM-22749] | 64 µg/mL (≈ 75.9 µM) | > 64 µg/mL | 64 µg/mL (≈ 75.9 µM) | 8 µg/mL (≈ 9.49 µM) | > 64 µg/mL | 2 µg/mL (≈ 2.37 µM) | 2 µg/mL (≈ 2.37 µM) | 2 µg/mL (≈ 2.37 µM) | 32 µg/mL (≈ 38 µM) | 16 µg/mL (≈ 19 µM) | > 64 µg/mL | > 64 µg/mL | 16 µg/mL (≈ 19 µM) | > 64 µg/mL | > 64 µg/mL | > 64 µg/mL | > 64 µg/mL
CC[C@H]1OC(=O)[C@@](C)(F)C(=O)[C@H](C)[C@@H](O[C@@H]2OC(C)CC(N(C)C)C2O)[C@](C)(OC)C[C@@H](C)C(=O)[C@H](C)[C@H]2N(CC#CCn3cc(-c4cc(F)nc(F)n4)nn3)C(=O)O[C@]12C (stereo partly drawn) [FSM-22750] | > 64 µg/mL | > 64 µg/mL | > 64 µg/mL | > 64 µg/mL | > 64 µg/mL | 4 µg/mL (≈ 4.63 µM) | 8 µg/mL (≈ 9.26 µM) | 8 µg/mL (≈ 9.26 µM) | > 64 µg/mL | > 64 µg/mL | > 64 µg/mL | > 64 µg/mL | > 64 µg/mL | > 64 µg/mL | > 64 µg/mL | > 64 µg/mL | > 64 µg/mL
CC[C@H]1OC(=O)[C@@](C)(F)C(=O)[C@H](C)[C@@H](O[C@@H]2OC(C)CC(N(C)C)C2O)[C@](C)(OC)C[C@@H](C)C(=O)[C@H](C)[C@H]2N(CC#CCn3cc(-c4cc(OC)ccn4)nn3)C(=O)O[C@]12C (stereo partly drawn) [FSM-100576] | 32 µg/mL (≈ 37.3 µM) | > 32 µg/mL | 32 µg/mL (≈ 37.3 µM) | 2 µg/mL (≈ 2.33 µM) | > 32 µg/mL | 0.125 µg/mL (≈ 0.146 µM) | 0.125 µg/mL (≈ 0.146 µM) | 0.25 µg/mL (≈ 0.292 µM) | 16 µg/mL (≈ 18.7 µM) | 4 µg/mL (≈ 4.67 µM) | > 32 µg/mL | > 32 µg/mL | 8 µg/mL (≈ 9.33 µM) | > 32 µg/mL | > 32 µg/mL | > 32 µg/mL | > 32 µg/mL
CC[C@H]1OC(=O)[C@@](C)(F)C(=O)[C@H](C)[C@@H](O[C@@H]2OC(C)CC(N(C)C)C2O)[C@](C)(OC)C[C@@H](C)C(=O)[C@H](C)[C@H]2N(CC#CCn3cc(-c4cc(N)ccn4)nn3)C(=O)O[C@]12C (stereo partly drawn) [FSM-100593] | 4 µg/mL (≈ 4.75 µM) | > 64 µg/mL | 8 µg/mL (≈ 9.5 µM) | 0.5 µg/mL (≈ 0.594 µM) | 64 µg/mL (≈ 76 µM) | 0.125 µg/mL (≈ 0.148 µM) | 0.125 µg/mL (≈ 0.148 µM) | 0.25 µg/mL (≈ 0.297 µM) | 8 µg/mL (≈ 9.5 µM) | 1 µg/mL (≈ 1.19 µM) | 32 µg/mL (≈ 38 µM) | 32 µg/mL (≈ 38 µM) | 2 µg/mL (≈ 2.38 µM) | 16 µg/mL (≈ 19 µM) | 32 µg/mL (≈ 38 µM) | 8 µg/mL (≈ 9.5 µM) | > 64 µg/mL
CC[C@H]1OC(=O)[C@@](C)(F)C(=O)[C@H](C)[C@@H](O[C@@H]2OC(C)CC(N(C)C)C2O)[C@](C)(OC)C[C@@H](C)C(=O)[C@H](C)[C@H]2N(CC#CCn3cc(-c4cc(=O)cc[nH]4)nn3)C(=O)O[C@]12C (stereo partly drawn) [FSM-100597] | 64 µg/mL (≈ 75.9 µM) | > 64 µg/mL | 32 µg/mL (≈ 38 µM) | 4 µg/mL (≈ 4.75 µM) | > 64 µg/mL | 1 µg/mL (≈ 1.19 µM) | 1 µg/mL (≈ 1.19 µM) | 2 µg/mL (≈ 2.37 µM) | 64 µg/mL (≈ 75.9 µM) | 8 µg/mL (≈ 9.49 µM) | > 64 µg/mL | > 64 µg/mL | 16 µg/mL (≈ 19 µM) | > 64 µg/mL | > 64 µg/mL | > 64 µg/mL | > 64 µg/mL
